Among the data in PMC6934184, “Selective DNA-PKcs inhibition extends the therapeutic index of localized radiotherapy and chemotherapy” (The Journal of Clinical Investigation, 2019) are inhibition values, retold here.

Structures are written as SMILES.

The target of this assay is T1, RAF1 (cRAF) Y340D Y341D (Homo sapiens, UniProt P04049, Y340D/Y341D).
T1 construct: purchased Thermo Fisher Scientific (Life Technologies) SelectScreen
Briefly: SelectScreen Z'LYTE. Format: biochemical. Conditions: ATP 100 µM. The method, boiled down:
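NU5455 was profiled across the SelectScreen Broad panel of kinase activity and binding assays. Z'LYTE reactions such as CSF1R ran at apparent Km ATP, while the Adapta CAMK1 assay used ATP listed as 10. Values are given as percent.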

T1 sequence (P04049 whole entry Y340D/Y341D): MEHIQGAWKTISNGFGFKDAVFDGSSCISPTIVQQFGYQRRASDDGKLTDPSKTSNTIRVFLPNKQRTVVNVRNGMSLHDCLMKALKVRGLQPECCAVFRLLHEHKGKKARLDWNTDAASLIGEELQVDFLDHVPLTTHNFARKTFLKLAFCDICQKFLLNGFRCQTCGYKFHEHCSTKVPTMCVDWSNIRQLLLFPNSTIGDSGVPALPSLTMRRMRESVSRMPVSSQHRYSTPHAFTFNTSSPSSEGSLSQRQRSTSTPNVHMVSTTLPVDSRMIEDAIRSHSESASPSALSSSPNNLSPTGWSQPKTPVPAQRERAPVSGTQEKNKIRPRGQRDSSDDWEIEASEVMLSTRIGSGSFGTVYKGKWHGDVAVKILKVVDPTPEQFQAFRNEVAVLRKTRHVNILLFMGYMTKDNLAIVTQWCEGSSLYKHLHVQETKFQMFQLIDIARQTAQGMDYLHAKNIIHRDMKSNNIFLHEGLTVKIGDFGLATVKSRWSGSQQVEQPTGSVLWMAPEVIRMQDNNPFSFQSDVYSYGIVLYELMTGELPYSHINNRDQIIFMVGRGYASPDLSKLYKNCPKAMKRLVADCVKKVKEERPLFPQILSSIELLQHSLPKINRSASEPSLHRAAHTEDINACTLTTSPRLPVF

What is called inhibition is the change of the read-out against control, counted positive when it falls. A lower inhibition goes with a weak effect. Compound `CN(C(=O)CN1CCOCC1)c1ccc2sc3c(-c4cccc5c(=O)cc(N6CC7CCC(C6)O7)oc45)cccc3c2c1` [NU5455] showed an inhibition at 1 µM of 7.9%.
